This note sets out measurements from publication PMC8643619 (Plant and Cell Physiology, 2021).

In one assay the test system is PcAAE2. Kind of assay: coupled NADH oxidation assay. Type of assay: biochemical, Pogostemon cablin. The settings on record: 10 mM MgCl2, pH 7.5, 30°C.
The next assay has as its system PcAAE1. Kind of assay: coupled NADH oxidation assay. The format is biochemical, Pogostemon cablin. The settings on record: 10 mM MgCl2, pH 7.5, 30°C.

Broadly, the Km is the concentration of substrate that gives half-maximal velocity. Take `CC(C)CCC(=O)O` [4-Methylvaleric acid]: in the assay with PcAAE2 (1 mM CoA, 5 mM ATP), the Km amounted to 43.4 ± 5.1 µM.

`CC(C)CCCC(=O)O` [5-Methylhexanoic acid]: the Km with PcAAE2 (1 mM CoA, 5 mM ATP) came out at 176 ± 20 µM.

Regarding `Nc1ncnc2c1ncn2[C@@H]1O[C@H](COP(=O)(O)OP(=O)(O)OP(=O)(O)O)[C@@H](O)[C@H]1O` [ATP], the Km came out at 160 µM in the assay with PcAAE2 (co-substrate 4-methylvaleric acid 1 mM, CoA 1 mM) and 89 µM in the assay with PcAAE1 (co-substrate isovaleric acid 1 mM, CoA 1 mM).

Take `CCCC(=O)O` [Butyric acid]: the Km with PcAAE2 (1 mM CoA, 5 mM ATP) was 570 ± 86.5 µM; with PcAAE1 (1 mM CoA, 5 mM ATP), 161 ± 5 µM.

Take `CC(C)(COP(=O)(O)OP(=O)(O)OC[C@H]1O[C@@H](n2cnc3c(N)ncnc32)[C@H](O)[C@@H]1OP(=O)(O)O)[C@@H](O)C(=O)NCCC(=O)NCCS` [CoA]: the Km turned out to be 40.2 µM with PcAAE2 (co-substrate 4-methylvaleric acid 1 mM, 5 mM ATP) and 28.2 µM in the assay on PcAAE1 (co-substrate isovaleric acid 1 mM, 5 mM ATP).

For the compound `CCCCCCC(=O)O` [Heptanoic acid], in the assay with PcAAE2 (1 mM CoA, 5 mM ATP), the Km was 84.5 ± 7.1 µM.

As to `CCCCCC(=O)O` [Hexanoic acid], the Km in the assay on PcAAE2 (1 mM CoA, 5 mM ATP) was determined as 41.5 ± 2.4 µM.

On to `CC(C)CC(=O)O` [Isovaleric acid], for which the Km in the assay with PcAAE2 (1 mM CoA, 5 mM ATP) turned out to be 217 ± 13.1 µM; with PcAAE1 (1 mM CoA, 5 mM ATP) it was 12.9 ± 0.8 µM.

`CCCCC(=O)O` [Valeric acid]: the Km in the assay with PcAAE2 (1 mM CoA, 5 mM ATP) is 53.9 ± 2.7 µM.
